This passage reports IC50 results from ChEMBL document CHEMBL1154283, “Chrotacumines A-D, chromone alkaloids from Dysoxylum acutangulum” (J Nat Prod, 2009).

What all share (format): functional, cell-based
One test has as its system HL-60. The test can be described thus: Cytotoxicity against human HL60 cells after 48 hrs by MTT assay. Conditions: HL-60, 48 h.
The subject of a further test is HCT-116. Put plainly: Cytotoxicity against human HCT116 cells after 48 hrs by MTT assay. As to conditions: HCT-116, 48 h.
A further test relates to NCI-H226. The test can be described thus: Cytotoxicity against human NCI-H226 cells after 48 hrs by MTT assay. Conditions: NCI-H226, 48 h.
The subject of the next test is MCF7. Put plainly: Cytotoxicity against human MCF7 cells after 48 hrs by MTT assay. As to conditions: MCF7, 48 h.
In another test the test system is A549. The test can be described thus: Cytotoxicity against human A549 cells after 48 hrs by MTT assay. Conditions: A549, 48 h.

Compound `Cc1cc(=O)c2c(O)cc3c(c2o1)[C@@H]1C[C@H](O3)N(C)C[C@H]1OC(=O)c1ccccc1` [CHROTACUMINE A] had an IC50 in the test on HL-60 of over 10 µM. On to `C/C=C(\C)C(=O)O[C@@H]1CN(C)CC[C@@H]1c1c(O)cc(O)c2c(=O)cc(C)oc12` [CHROTACUMINE B], for which the IC50 in the test on HL-60 was over 10 µM. With `COc1cc(C(=O)O[C@@H]2CN(C)CC[C@@H]2c2c(O)cc(O)c3c(=O)cc(C)oc23)cc(OC)c1OC` [CHROTACUMINE C], in the test on HL-60, the IC50 is over 10 µM. With `COc1ccc(C(=O)O[C@@H]2CN(C)CC[C@@H]2c2c(O)cc(O)c3c(=O)cc(C)oc23)cc1OC` [CHROTACUMINE D], in the test with HL-60, the IC50 was over 10 µM. `Cc1cc(=O)c2c(O)cc(O)c([C@H]3CCN(C)C[C@H]3O)c2o1` [ROHITUKINE]: the IC50 in the test with HL-60 was 7.5 µM; in the test with HCT-116, 8.8 µM; with NCI-H226, over 10 µM; in the test with MCF7, over 10 µM; in the test on A549, over 10 µM.
